How the values were obtained:
[1] = Particle diameter on storage in sealed vial at 4° C., analysis (7); assay type: physicochemical; details: lipid complex stored for a certain period
Method: In the compositions of Examples 46 to 52, each composition was stored in a sealed vial at 4° C. and the particle diameter (Z-average and polydispersity index) before the strorage, after 3 months from the storage and after 6 months from the storage was measured in the same manner as that for the composition of Example 29.

[2] = Particle diameter after mixing, PBS dialysis and storage at 4° C., analysis (9); assay type: physicochemical; details: storage period, compared to the composition of Comparative Example 3
Method: In the compositions of Examples 53 and 54 and Comparative Example 3, the particle diameter (Z-average and polydispersity index) was measured immediately after the lipid complex was generated by mixing the siRNA diluent and the lipid solution in the preparation of each composition, after the lipid complex was dialyzed into PBS, and after storage in the sealed vial at 4° C. for 2 months and 6 months, using a particle diameter-measuring device (trade name “Zetasizer Nano ZS”, manufactured by Malvern Instruments Ltd.).

What does the source list for `CCCCCCCCCCC(CCCCCCCCC(=O)OCC(CCCC)CCCCCC)OC(=O)C1CCN(C)CC1` (centres unmarked) [YS-120, 1-((2-butyloctyl)oxy)-1-oxoicosane-10-yl-1-methylpiperidine-4-carboxylate]?
Increase in particle diameter of the lipid complex during storage (in words) [1]: stability is high; Increase in particle diameter of the lipid complex during storage (in words) [2]: an increase in particle diameter of the lipid complex was suppressed

Which “Increase in particle diameter of the lipid complex during storage (in words)” value (“Increase in particle diameter” below) [1] does the source give for `CCCCC/C=C\C(CCCC)COC(=O)CCCCCCCCC(CCCCCCCCCC)OC(=O)C1CCN(C)CC1` (centres unmarked) [YS-122, (Z)-1-((2-butylnon-3-en-1-yl)oxy)-1-oxoicosane-10-yl-1-methylpiperidine-4-carboxylate] here?
The value was “stability is high”.

For `CCCCCCCCCCC(CCCCCCCCC(=O)OC/C=C\CC(CCC)CCCC)OC(=O)C1CCN(C)CC1` (centres unmarked) [YS-123, (Z)-1-oxo-1-((5-propylnon-2-en-1-yl)oxy)icosane-10-yl-1-methylpiperidine-4-carboxylate], which “Increase in particle diameter” value [1] is on record?
The value was “stability is high”.

With `CCCCCCCCCCC(CCCCCCCCC(=O)OCCC(CCCCC)CCCCC)OC(=O)C1CCN(C)CC1` (centres unmarked) [YS-124, 1-oxo-1-((3-pentyloctyl)oxy)icosane-10-yl-1-methylpiperidine-4-carboxylate] as the molecule, how does the “Increase in particle diameter” value [1] read?
Its value is “stability is high”.

And the “Increase in particle diameter” value [2]?
The value was “an increase in particle diameter of the lipid complex was suppressed”.

With `CCCCCCCCCCC(CCCCCCCCC(=O)OCC(CCC)CC(CCC)CCC)OC(=O)C1CCN(C)CC1` (centres unmarked) [YS-125, 1-((2,4-dipropylheptyl)oxy)-1-oxoicosane-10-yl-1-methylpiperidine-4-carboxylate] as the molecule, how does the “Increase in particle diameter” value [1] read?
Its value is “stability is high”.

With `CCCCCCCCCCC(CCCCCCCCC(=O)OCCC(CCC)C(CCC)CCC)OC(=O)C1CCN(C)CC1` (centres unmarked) [YS-126, 1-((3,4-dipropylheptyl)oxy)-1-oxoicosane-10-yl-1-methylpiperidine-4-carboxylate] as the molecule, how does the “Increase in particle diameter” value [1] read?
The value was “stability is high”.
